Data as given in US7595183B2, “Cathepsins L-like cysteine protease derived from northern shrimp (Pandalus eous)” (Nichirei Corporation, priority 2002, dated 2009).
Peptide text beside a SMILES is read from it. * marks the point of attachment. Cbz = O=C(OCc1ccccc1)*; CHN2 = [N-]=[N+]=C*; tBu = CC(C)(C)*

Test system: northern shrimp cathepsin L1
Assay: Effects of inhibitors on northern shrimp cathepsin L1, residual activity with Z-Phe-Arg-MCA
Assay type: biochemical, northern shrimp (Pandalus eous)
Details: for Residual activity (%): enzyme 1 nM, Z-Phe-Arg-MCA 100 μM
Method: Enzymatic activity was assayed at 25° C. using intramolecularly quenched MCA (methyl coumarylamide) substrates in a buffer containing 100 mM sodium acetate, pH 6.0, 100 mM NaCl, 2 mM DTT, 2 mM EDTA and 0.01% Brij-35. The substrate solution was prepared in dimethyl sulfoxide at a concentration of 20 mM. Hydrolysis was initiated by adding the enzyme diluted with the same buffer. Enzymatic activity was determined by measuring fluorescence intensity of the released 7-amino-4-methylcoumarin (AMC) at an excitation wavelength of 380 nm and an emission wavelength of 460 nm.
Enzyme solution was pretreated with any one of inhibitors E64 (L-trans-epoxysuccinyl-leucyl-agmatine), Z-Phe-Phe-CHN2, Z-Phe-Tyr(t-Bu)-CHN2, leupeptin, antipain, PMSF (phenylmethylsulfonyl fluoride), and 1,10-phenanthroline in a buffer (containing 100 mM sodium acetate, 2 mM DTT, 2 mM EDTA, and 0.05% Triton X-100). Residual enzymatic activity was then measured with fluorescent substrate Z-Phe-Arg-MCA. The final concentrations of the enzymes and the substrate were 1 nM and 100 μM, respectively. The residual enzymatic activity was measured with the method described above.

SMILES | Residual activity (%) (inhibitor 1 mM) | Residual activity (%) (inhibitor 10 mM) | Inhibition of northern shrimp cathepsin L1 (in words) | Residual activity (%) (inhibitor 1 μM) | Residual activity (%) (inhibitor 10 μM) | Residual activity (%) (inhibitor 0.1 μM)
c1cnc2c(c1)ccc1cccnc12 [1,10-Phenanthroline, 1,10-phenanthroline] | 99% | 98% |  |  |  | 
O=S(=O)(F)Cc1ccccc1 [PMSF, phenylmethylsulfonyl fluoride] | 100% | 100% |  |  |  | 
CC(C)(C)Oc1ccc(C[C@H](NC(=O)[C@H](Cc2ccccc2)NC(=O)OCc2ccccc2)C(=O)C=[N+]=[N-])cc1 [Z-Phe-Tyr(t-Bu)-CHN2] (Cbz-Phe-Tyr(tBu)-CHN2) |  |  | did not inhibit the present enzyme activity so much | 94% | 86% | 
CC(C)C[C@H](NC(=O)[C@H]1O[C@@H]1C(=O)O)C(=O)NCCCCN=C(N)N (relative stereo) [E64, L-trans-epoxysuccinyl-leucyl-agmatine] |  |  | strongly inhibited | 0% |  | 0%
CC(=O)N[C@@H](CC(C)C)C(=O)N[C@@H](CC(C)C)C(=O)N[C@H](C=O)CCCNC(=N)N [Leupeptin, leupeptin] |  |  | strongly inhibited | 0% | 0% | 
[N-]=[N+]=CC(=O)[C@H](Cc1ccccc1)NC(=O)[C@H](Cc1ccccc1)NC(=O)OCc1ccccc1 [Z-Phe-Phe-CHN2] (Cbz-Phe-Phe-CHN2) |  |  | did not inhibit the present enzyme activity so much | 78% | 55% | 
